Key:
Type in all cases: in vivo
[1] = system: giant foxtail (Setaria faberi); assay: Test G Pre-Emergence Protocol; conditions: Setaria faberi, pre-emergence, 312 h, evaluated after 13 days
Procedure, shortened: (§1)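 One day after sowing, pots are treated with a spray of test compound formulated in acetone/water 50:50 plus 0.5% Tween 20, giving 15.625, 62.5 or 250 g/ha. Evaluation on a 0–100 damage scale follows 13 days of glasshouse growth.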

[2] = system: ivy-leaved morning glory (Ipomoea hederacea); assay: Test G Pre-Emergence Protocol; conditions: Ipomoea, pre-emergence, 312 h, evaluated after 13 days
Procedure, shortened: as §1

[3] = system: redroot pigweed (Amaranthus retroflexus); assay: Test G Pre-Emergence Protocol; conditions: Amaranthus retroflexus, pre-emergence, 312 h, evaluated after 13 days
Procedure, shortened: as §1

[4] = system: barnyardgrass (Echinochloa crus-galli); assay: Test G Pre-Emergence Protocol; conditions: Echinochloa crus-galli, pre-emergence, 312 h, evaluated after 13 days
Procedure, shortened: as §1

[5] = system: corn (Zea mays); assay: Test G Pre-Emergence Protocol; conditions: Zea mays, pre-emergence, 312 h, evaluated after 13 days
Procedure, shortened: as §1

[6] = system: velvetleaf (Abutilon theophrasti); assay: Test G Pre-Emergence Protocol; conditions: Abutilon theophrasti, pre-emergence, 312 h, evaluated after 13 days
Procedure, shortened: as §1

[7] = system: giant foxtail (Setaria faberi); assay: Test G Post-Emergence Protocol; conditions: Setaria faberi, post-emergence, 312 h
Procedure, shortened: (§2)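 Post-emergence herbicidal damage, scored visually 0–100 at 13 days. Application at 15.625, 62.5 or 250 g/ha onto 8-day-old plants grown under glasshouse control.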

[8] = system: ivy-leaved morning glory (Ipomoea hederacea); assay: Test G Post-Emergence Protocol; conditions: Ipomoea, post-emergence, 312 h
Procedure, shortened: as §2

[9] = system: redroot pigweed (Amaranthus retroflexus); assay: Test G Post-Emergence Protocol; conditions: Amaranthus retroflexus, post-emergence, 312 h
Procedure, shortened: as §2

[10] = system: barnyardgrass (Echinochloa crus-galli); assay: Test G Post-Emergence Protocol; conditions: Echinochloa crus-galli, post-emergence, 312 h
Procedure, shortened: as §2

[11] = system: corn (Zea mays); assay: Test G Post-Emergence Protocol; conditions: Zea mays, post-emergence, 312 h
Procedure, shortened: as §2

[12] = system: velvetleaf (Abutilon theophrasti); assay: Test G Post-Emergence Protocol; conditions: Abutilon theophrasti, post-emergence, 312 h
Procedure, shortened: as §2

Work on COc1c(Cl)ccc([C@H]2CN(C)C(=O)[C@@H]2C(=O)Nc2cccc(F)n2)c1F (racemic) [Compound 1477] yielded a pest or weed control at 15.625 g/ha ([1]; 15.625 g ai/ha, read-out: Foxtail, Giant damage rating (100=total damage to plant; 0=no damage to plant)) of 60%, a pest or weed control at 62.5 g/ha ([1]; 62.5 g ai/ha, 100=total damage to plant, 0=no damage to plant, read-out: plant damage rating, Foxtail, Giant) of 80% and a pest or weed control at 250 g/ha ([1]; 250 g ai/ha, read-out: Foxtail, Giant damage rating (100=total damage to plant; 0=no damage to plant)) of 90%. The pest or weed control at 15.625 g/ha ([2]; 15.625 g ai/ha, read-out: Morning-glory, Ivy-leaved damage rating (100=total damage to plant; 0=no damage to plant)) was 0%, the pest or weed control at 62.5 g/ha ([2]; 62.5 g ai/ha, 100=total damage to plant, 0=no damage to plant, read-out: plant damage rating, Morningglory, Ivy-leaved) was 0% and the pest or weed control at 250 g/ha ([2]; 250 g ai/ha, read-out: Morningglory, Ivy-leaved damage rating (100=total damage to plant; 0=no damage to plant)) was 0%. The pest or weed control at 15.625 g/ha ([3]; 15.625 g ai/ha, read-out: Pigweed, Redroot damage rating (100=total damage to plant; 0=no damage to plant)) was 0%, the pest or weed control at 62.5 g/ha ([3]; 62.5 g ai/ha, 100=total damage to plant, 0=no damage to plant, read-out: plant damage rating, Pigweed, Redroot) was 0% and the pest or weed control at 250 g/ha ([3]; 250 g ai/ha, read-out: Pigweed, Redroot damage rating (100=total damage to plant; 0=no damage to plant)) was 0%. It also gave a pest or weed control at 15.625 g/ha ([4]; 15.625 g ai/ha, read-out: Barnyard grass damage rating (100=total damage to plant; 0=no damage to plant)) of 50%, a pest or weed control at 62.5 g/ha ([4]; 62.5 g ai/ha, 100=total damage to plant, 0=no damage to plant, read-out: plant damage rating, Barnyardgrass) of 60% and a pest or weed control at 250 g/ha ([4]; 250 g ai/ha, read-out: Barnyardgrass damage rating (100=total damage to plant; 0=no damage to plant)) of 80%. For the same compound, the plant injury at 15.625 g/ha ([5]; 15.625 g ai/ha, read-out: Corn damage rating (100=total damage to plant; 0=no damage to plant)) was 20%, the plant injury at 62.5 g/ha ([5]; 62.5 g ai/ha, 100=total damage to plant, 0=no damage to plant, read-out: plant damage rating, Corn) was 40% and the plant injury at 250 g/ha ([5]; 250 g ai/ha, read-out: Corn damage rating (100=total damage to plant; 0=no damage to plant)) was 50%. It also gave a pest or weed control at 15.625 g/ha ([6]; 15.625 g ai/ha, read-out: Velvetleaf damage rating (100=total damage to plant; 0=no damage to plant)) of 0%, a pest or weed control at 62.5 g/ha ([6]; 62.5 g ai/ha, 100=total damage to plant, 0=no damage to plant, read-out: plant damage rating, Velvetleaf) of 0% and a pest or weed control at 250 g/ha ([6]; 250 g ai/ha, read-out: Velvetleaf damage rating (100=total damage to plant; 0=no damage to plant)) of 0%. The pest or weed control at 15.625 g/ha ([7]; 15.625 g ai/ha, evaluated after 13 days (100=total damage to plant; 0=no damage to plant), read-out: Foxtail, Giant damage rating) was 50%, the pest or weed control at 62.5 g/ha ([7]; 62.5 g ai/ha, evaluated after 13 days, read-out: Foxtail, Giant damage rating (100=total damage to plant; 0=no damage to plant)) was 60% and the pest or weed control at 250 g/ha ([7]; 250 g ai/ha, evaluated after 13 days, read-out: damage to plant, Foxtail, Giant (100=total damage to plant; 0=no damage to plant)) was 70%. The pest or weed control at 15.625 g/ha ([8]; 15.625 g ai/ha, evaluated after 13 days (100=total damage to plant; 0=no damage to plant), read-out: Morningglory, Ivy-leaved damage rating) was 0%, the pest or weed control at 62.5 g/ha ([8]; 62.5 g ai/ha, evaluated after 13 days, read-out: Morningglory, Ivy-leaved damage rating (100=total damage to plant; 0=no damage to plant)) was 0% and the pest or weed control at 250 g/ha ([8]; 250 g ai/ha, evaluated after 13 days, read-out: damage to plant, Morningglory, Ivy-leaved (100=total damage to plant; 0=no damage to plant)) was 0%. It also gave a pest or weed control at 15.625 g/ha ([9]; 15.625 g ai/ha, evaluated after 13 days (100=total damage to plant; 0=no damage to plant), read-out: Pigweed, Redroot damage rating) of 0%, a pest or weed control at 62.5 g/ha ([9]; 62.5 g ai/ha, evaluated after 13 days, read-out: Pigweed, Redroot damage rating (100=total damage to plant; 0=no damage to plant)) of 0% and a pest or weed control at 250 g/ha ([9]; 250 g ai/ha, evaluated after 13 days, read-out: damage to plant, Pigweed, Redroot (100=total damage to plant; 0=no damage to plant)) of 30%. For the same compound, the pest or weed control at 15.625 g/ha ([10]; 15.625 g ai/ha, evaluated after 13 days (100=total damage to plant; 0=no damage to plant), read-out: Barnyardgrass damage rating) was 50%, the pest or weed control at 62.5 g/ha ([10]; 62.5 g ai/ha, evaluated after 13 days, read-out: Barnyardgrass damage rating (100=total damage to plant; 0=no damage to plant)) was 60% and the pest or weed control at 250 g/ha ([10]; 250 g ai/ha, evaluated after 13 days, read-out: damage to plant, Barnyardgrass (100=total damage to plant; 0=no damage to plant)) was 60%. It also gave a plant injury at 15.625 g/ha ([11]; 15.625 g ai/ha, evaluated after 13 days (100=total damage to plant; 0=no damage to plant), read-out: Corn damage rating) of 30%, a plant injury at 62.5 g/ha ([11]; 62.5 g ai/ha, evaluated after 13 days, read-out: Corn damage rating (100=total damage to plant; 0=no damage to plant)) of 60% and a plant injury at 250 g/ha ([11]; 250 g ai/ha, evaluated after 13 days, read-out: damage to plant, Corn (100=total damage to plant; 0=no damage to plant)) of 50%. It also gave a pest or weed control at 15.625 g/ha ([12]; 15.625 g ai/ha, evaluated after 13 days (100=total damage to plant; 0=no damage to plant), read-out: Velvetleaf damage rating) of 0%, a pest or weed control at 62.5 g/ha ([12]; 62.5 g ai/ha, evaluated after 13 days, read-out: Velvetleaf damage rating (100=total damage to plant; 0=no damage to plant)) of 20% and a pest or weed control at 250 g/ha ([12]; 250 g ai/ha, evaluated after 13 days, read-out: damage to plant, Velvetleaf (100=total damage to plant; 0=no damage to plant)) of 20%.

Source: patent US12077503B2, “Substituted cyclic amides and their use as herbicides” (FMC CORPORATION, priority 2015, dated 2024)
